In ChEMBL document CHEMBL1201862, “PubChem BioAssay data set” (2004):
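Protocol summary: plate cells (96-well), add compound at 5 concentrations, incubate 48 h, interpolate endpoints linearly. GI50 is the concentration that inhibits growth by half.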 Calls of active or inactive are those of the source. Cut-off read from the data, not from the text of the source: active = GI50 up to about 1.1 µM and inactive = higher.

How the values were obtained:
Test in all cases: inhibition of tumour cell growth, NCI panel, 48 h
HCT-15 = tested on: HCT-15
UACC-257 = tested on: UACC-257
NCI-H23 = tested on: NCI-H23
SF-268 = tested on: SF-268
M14 = tested on: M14
HCC 2998 = tested on: HCC 2998
UACC-62 = tested on: UACC-62
MOLT-4 = tested on: MOLT-4
RXF 393 = tested on: RXF 393
UO-31 = tested on: UO-31
ACHN = tested on: ACHN
SK-MEL-2 = tested on: SK-MEL-2
SK-MEL-28 = tested on: SK-MEL-28
HOP-92 = tested on: HOP-92
K562 = tested on: K562
SNB-75 = tested on: SNB-75
EKVX = tested on: EKVX
NCI-H522 = tested on: NCI-H522
CAKI-1 = tested on: CAKI-1
COLO 205 = tested on: COLO 205

Compound | GI50 (HCT-15) [µM] | GI50 (UACC-257) | GI50 (NCI-H23) | GI50 (SF-268) | GI50 (M14) | GI50 (HCC 2998) | GI50 (UACC-62) | GI50 (MOLT-4) | GI50 (RXF 393) | GI50 (UO-31) | GI50 (ACHN) | GI50 (SK-MEL-2) | GI50 (SK-MEL-28) | GI50 (HOP-92) | GI50 (K562) | GI50 (SNB-75) | GI50 (EKVX) | GI50 (NCI-H522) | GI50 (CAKI-1) | GI50 (COLO 205)
O=C(O)C(SC(=S)c1ccc(C(=S)SC(C(=O)O)c2ccccc2)cc1)c1ccccc1 (stereo not given) | 42.2 | > 100 µM (inactive) | > 100 µM (inactive) | 97.3 µM (inactive) | > 100 µM (inactive) | > 100 µM (inactive) | 47.3 µM (inactive) | > 100 µM (inactive) | > 100 µM (inactive) | 92.7 µM (inactive) | > 100 µM (inactive) | > 100 µM (inactive) | 99.3 µM (inactive) | > 100 µM (inactive) | 44.5 µM (inactive) | 35 µM (inactive) |  |  |  | 
Nc1ccc(S(=O)(=O)c2ccc(NCN3C(=O)NC(=O)C(=O)C3=O)cc2)cc1 [ALLANTODAPSONE] | > 100 | > 100 µM (inactive) | > 100 µM (inactive) | > 100 µM (inactive) | > 100 µM (inactive) | > 100 µM (inactive) | > 100 µM (inactive) | > 100 µM (inactive) | > 100 µM (inactive) | > 100 µM (inactive) | > 100 µM (inactive) | > 100 µM (inactive) | > 100 µM (inactive) | > 100 µM (inactive) | > 100 µM (inactive) |  | > 100 µM (inactive) | > 100 µM (inactive) | > 100 µM (inactive) | 
CC1SC2=NC3=C(c4ccccc4C3=O)C(c3ccccc3Cl)N2C1=O (stereo not given) | > 100 | > 100 µM (inactive) | 85.7 µM (inactive) | > 100 µM (inactive) | > 100 µM (inactive) | > 100 µM (inactive) | 80.2 µM (inactive) | 75 µM (inactive) |  | > 100 µM (inactive) | > 100 µM (inactive) | > 100 µM (inactive) | > 100 µM (inactive) | 78.2 µM (inactive) | 90.2 µM (inactive) | 63 µM (inactive) | > 100 µM (inactive) | 30.8 µM (inactive) | > 100 µM (inactive) | > 100 µM (inactive)
CCOC(=O)c1c(Cl)nc2ccccc2c1N=[N+]=[N-] | 18.6 | 21.8 µM (inactive) | 27.7 µM (inactive) | 16.4 µM (inactive) | 19.1 µM (inactive) | 80.4 µM (inactive) |  | 24.2 µM (inactive) | 44.6 µM (inactive) | 18.7 µM (inactive) | 40.3 µM (inactive) | 19.2 µM (inactive) | 52.4 µM (inactive) | 24.7 µM (inactive) | 69.5 µM (inactive) |  | 22.4 µM (inactive) | 16.7 µM (inactive) | 20.2 µM (inactive) | 21.5 µM (inactive)
CC(C)=CCC/C(C)=C/CC/C(C)=C/C(O)c1ccccc1 (stereo not given) | 18.8 | 18.2 µM (inactive) | 22.7 µM (inactive) | 18.9 µM (inactive) | 18.3 µM (inactive) |  | 17 µM (inactive) |  |  | 21 µM (inactive) | 17.4 µM (inactive) | 19.8 µM (inactive) |  |  | 61.4 µM (inactive) |  | 20.1 µM (inactive) | > 10 µM (inactive) | > 10 µM (inactive) | 18.5 µM (inactive)
CSc1nc2c(nc(N)n2C2OCC(O)C(O)C2O)c(=O)[nH]1 (stereo not given) |  | > 100 µM (inactive) | > 100 µM (inactive) | > 100 µM (inactive) | > 100 µM (inactive) | > 100 µM (inactive) | > 100 µM (inactive) | > 100 µM (inactive) | > 100 µM (inactive) | > 100 µM (inactive) | > 100 µM (inactive) |  | > 100 µM (inactive) | > 100 µM (inactive) | > 100 µM (inactive) | > 100 µM (inactive) | > 100 µM (inactive) | > 100 µM (inactive) | > 100 µM (inactive) | > 100 µM (inactive)
CCN1CCC(O)(c2ccc(O)cc2)C(C(=O)c2ccc(O)cc2)C1 (stereo not given) | 17.5 | 13.7 µM (inactive) | 20.3 µM (inactive) | 39.2 µM (inactive) | 19.5 µM (inactive) | > 10 µM (inactive) | 16.4 µM (inactive) | 21.9 µM (inactive) | 16.6 µM (inactive) | 21.6 µM (inactive) | 19.8 µM (inactive) |  | 17 µM (inactive) | 19.7 µM (inactive) | 12 µM (inactive) | 11.2 µM (inactive) | 28.2 µM (inactive) |  |  | 4.45 µM (inactive)
c1ccc(COc2cccc3ccc[n+](Cc4ccccc4)c23)cc1 | 27.5 | 2.61 µM (inactive) | 2.84 µM (inactive) | 4.06 µM (inactive) | 9.38 µM (inactive) | 13.1 µM (inactive) | 4.6 µM (inactive) | 5.35 µM (inactive) | 8.75 µM (inactive) | 25.8 µM (inactive) | 8.2 µM (inactive) | 5.21 µM (inactive) | 3.85 µM (inactive) | 3.41 µM (inactive) | 2.38 µM (inactive) | 5.2 µM (inactive) | 6.43 µM (inactive) | 1.95 µM (inactive) |  | 6.44 µM (inactive)
CCc1ccc2nc(-c3ccc(O)cc3)sc2c1 | 15.1 | 12.7 µM (inactive) | 16.1 µM (inactive) | 17.4 µM (inactive) | 18.7 µM (inactive) |  | 12.4 µM (inactive) | 13.6 µM (inactive) |  | 11.8 µM (inactive) | 17.7 µM (inactive) | 16.5 µM (inactive) |  |  | 19.6 µM (inactive) |  |  | 3.86 µM (inactive) | 12.4 µM (inactive) | 15.3 µM (inactive)
O=C(O)C1CC2C=CCC(C2)C1 (stereo not given) | > 100 | > 100 µM (inactive) | > 100 µM (inactive) | > 100 µM (inactive) | > 100 µM (inactive) |  | > 100 µM (inactive) | > 100 µM (inactive) | > 100 µM (inactive) | > 100 µM (inactive) | > 100 µM (inactive) | 91.8 µM (inactive) | > 100 µM (inactive) | > 100 µM (inactive) | > 100 µM (inactive) | > 100 µM (inactive) | > 100 µM (inactive) | > 100 µM (inactive) | > 100 µM (inactive) | > 100 µM (inactive)
CC(C)OP(=O)(OC(C)C)/C(F)=N/Nc1ccc([N+](=O)[O-])cc1 | > 100 | > 100 µM (inactive) | > 100 µM (inactive) | > 100 µM (inactive) | > 100 µM (inactive) | > 100 µM (inactive) | > 100 µM (inactive) | > 100 µM (inactive) |  | > 100 µM (inactive) | > 100 µM (inactive) | > 100 µM (inactive) | > 100 µM (inactive) | > 100 µM (inactive) | > 100 µM (inactive) | 38.7 µM (inactive) | > 100 µM (inactive) | > 100 µM (inactive) | > 100 µM (inactive) | > 100 µM (inactive)
CN1C(=O)N(C)C2(CCN(CC(CC3OCCO3)c3ccc(F)cc3)CC2)C1=O (stereo not given) | > 100 | > 100 µM (inactive) | > 100 µM (inactive) | > 100 µM (inactive) | > 100 µM (inactive) |  | > 100 µM (inactive) | > 100 µM (inactive) | > 100 µM (inactive) | > 100 µM (inactive) | > 100 µM (inactive) | > 100 µM (inactive) | > 100 µM (inactive) | > 100 µM (inactive) | > 100 µM (inactive) | > 100 µM (inactive) | > 100 µM (inactive) | > 100 µM (inactive) | > 100 µM (inactive) | > 100 µM (inactive)
O=C(Nc1nccs1)c1c(O)nc2sccn2c1=O | > 10 |  | > 10 µM (inactive) | > 10 µM (inactive) | > 10 µM (inactive) | > 10 µM (inactive) | > 10 µM (inactive) | > 10 µM (inactive) | > 10 µM (inactive) | 6.55 µM (inactive) | > 10 µM (inactive) | > 10 µM (inactive) | > 10 µM (inactive) |  |  | > 10 µM (inactive) | > 10 µM (inactive) | > 10 µM (inactive) | > 10 µM (inactive) | > 10 µM (inactive)
C[Si](C)(N[Si](C)(C)OCCc1ccccc1)OCCc1ccccc1 | > 100 | > 100 µM (inactive) | > 100 µM (inactive) |  | > 100 µM (inactive) | > 100 µM (inactive) | > 100 µM (inactive) |  | > 100 µM (inactive) | > 100 µM (inactive) | > 100 µM (inactive) | > 100 µM (inactive) | > 100 µM (inactive) | > 100 µM (inactive) |  | > 100 µM (inactive) | > 100 µM (inactive) |  | > 100 µM (inactive) | 
O=C(CCc1ccc(O)cc1)NCCc1cccc(O)c1 | > 50 | > 50 µM (inactive) | > 50 µM (inactive) | > 50 µM (inactive) | > 50 µM (inactive) |  | > 50 µM (inactive) | > 50 µM (inactive) | > 50 µM (inactive) | > 50 µM (inactive) | > 50 µM (inactive) | > 50 µM (inactive) | > 50 µM (inactive) | > 50 µM (inactive) | > 50 µM (inactive) | 0.005 µM (active) | > 50 µM (inactive) | 20.2 µM (inactive) | > 50 µM (inactive) | > 50 µM (inactive)
C1=CCN(c2ccccc2)CC1 | 14.8 | 28.4 µM (inactive) | 31.5 µM (inactive) | 36.6 µM (inactive) | 19.9 µM (inactive) | 49.9 µM (inactive) | 30.3 µM (inactive) | 5.69 µM (inactive) | 12.2 µM (inactive) | > 100 µM (inactive) | 21.5 µM (inactive) | 39.1 µM (inactive) | 24.8 µM (inactive) | 21.2 µM (inactive) | 30.1 µM (inactive) | 33.1 µM (inactive) | 97.1 µM (inactive) | 16.3 µM (inactive) |  | 34.5 µM (inactive)
